From patent US10676473B2, “Solid state forms of fused heteroaromatic pyrrolidinones” (TAKEDA PHARMACEUTICAL COMPANY LIMITED, priority 2014, dated 2020)
Converted amounts (≈) assume the structure as drawn. “Also recorded” adds a separate entry of the source. Where a name gives a salt, the structure may show the parent alone. Read-outs that look alike come from different tables or passages of the source.

What was measured:
[1] = Gravimetric vapour sorption (GVS) isotherm; assay type: physicochemical; conditions: for change in form / XRPD pattern post GVS analysis: XRPD after the isotherm; for GVS mass / total weight change: between 0-90% RH; for water exchanged (GVS): between 0 and 90% RH; for GVS behaviour (dehydration, crystallisation, transformation) / hygroscopicity by GVS: 25° C.; for GVS behaviour (dehydration, crystallisation, transformation): RH as stated in the value; for hygroscopicity by GVS: subjected to humidity (various RH levels)
Experimental: Sorption isotherms were obtained using a SMS DVS Intrinsic moisture sorption analyser, controlled by DVS Intrinsic Control software v1.0.0.30. The sample temperature was maintained at 25° C. by the instrument controls. The humidity was controlled by mixing streams of dry and wet nitrogen, with a total flow rate of 200 ml/min The relative humidity was measured by a calibrated Rotronic probe (dynamic range of 1.0-100% RH), located near the sample. The weight change, (mass relaxation) of the sample as a function of % RH was constantly monitored by the microbalance (accuracy ±0.005 mg).
Typically 5-20 mg of sample was placed in a tared mesh stainless steel basket under ambient conditions. The sample was loaded and unloaded at 40% RH and 25° C. (typical room conditions). A moisture sorption isotherm was performed as outlined below (2 scans giving 1 complete cycle). The standard isotherm was performed at 25° C. at 10% RH intervals over a 0-90% RH range. Data analysis was undertaken in Microsoft Excel using DVS Analysis Suite v6.0.
The sample was recovered after completion of the isotherm and re-analyzed by XRPD.

[2] = Storage at elevated temperature/humidity, form checked by XRPD; assay type: physicochemical; conditions: for stability on storage: duration not given; for stability to moisture / humidity: exposure to humidity
[3] = Solubility of solid forms; assay type: physicochemical
[4] = Plasma pharmacokinetics in patients, oral once daily dosing; conditions: human, in vivo
Experimental: (§1) Patients aged ≥18 yrs with advanced solid tumors/lymphoma whose disease failed standard therapies received oral Compound 1 citrate (Form 1) daily (QD, 60-120 mg) in 28 day cycles. To determine the maximum tolerated dose, dose escalation proceeded via modified titration design based on dose limiting toxicity or any drug-related grade ≥2 adverse event (AE) during cycle 1. Blood samples for plasma pharmacokinetic assessments were collected pre-dose and post-dose on day 1 and day 15 of cycle 1. Response assessments per RECIST for solid tumors and per IWG criteria for lymphoma were performed between day 22 and day 29 (pre-dose) of cycle 2, 4 and 6, and every 3 cycles thereafter.

[5] = Safety and dose limiting toxicity in the dose escalation study in patients; assay type: in vivo, human
Experimental: as §1

[6] = tested on: advanced solid tumors/lymphoma; test: Response assessment (RECIST / IWG criteria) in patients; assay type: in vivo, human
Experimental: as §1

[7] = DLBCL, 60 mg QD, after 2 cycles

Compound: Cn1cc(-c2nc(N[C@@H]3CCCC[C@@H]3N)c(F)c3c2C(=O)NC3)cn1 [Form 15]
- change in form / XRPD pattern post GVS analysis [1]: no change in the XRPD pattern was noted
- GVS mass / total weight change [1]: 2.0%
- water exchanged (GVS) [1]: 0.4 eq.
- stability on storage ([2]; 25° C./97% RH): stable
- stability on storage ([2]; 40° C./75% RH): stable
- aqueous solubility ([3]; pH 9.41): 710 µg/mL (≈ 2060 µM)

Compound: Cn1cc(-c2nc(N[C@@H]3CCCC[C@@H]3N)c(F)c3c2C(=O)NC3)cn1 [Form 6]
- GVS behaviour (dehydration, crystallisation, transformation) [1]: adsorbs moisture and undergoes a crystallisation event above 70% RH
- GVS water uptake ([1]; between 40-60% RH): 5 % w/w
- GVS weight loss ([1]; between 70-90% RH): 3%
- stability to moisture / humidity [2]: seems to undergo a phase transformation, possibly leading to Form 9

Compound: Cn1cc(-c2nc(N[C@@H]3CCCC[C@@H]3N)c(F)c3c2C(=O)NC3)cn1 [Compound 1 free base, 6-((1R,2S)-2-aminocyclohexylamino)-7-fluoro-4-(1-methyl-1H-pyrazol-4-yl)-1H-pyrrolo[3,4-c]pyridine-3(2H)-one]
- GVS behaviour (dehydration, crystallisation, transformation) [1]: the methanol solvate desolvated, however, the anhydrous form was found to be stable
- stability on storage ([2]; 40° C./75% RH): the methanol solvate desolvated, however, the anhydrous form was found to be stable

Compound: Cn1cc(-c2nc(N[C@@H]3CCCC[C@@H]3N)c(F)c3c2C(=O)NC3)cn1 [Compound 1 citrate, 6-(((1R,2S)-2-aminocyclohexyl)amino)-7-fluoro-4-(1-methyl-1H-pyrazol-4-yl)-1H-pyrrolo[3,4-c]pyridin-3(2H)-one citrate]
- hygroscopicity by GVS ([1]; citrate): non hygroscopic

Compound: Cn1cc(-c2nc(N[C@@H]3CCCC[C@@H]3N)c(F)c3c2C(=O)NC3)cn1 [Form 12]
- GVS behaviour (dehydration, crystallisation, transformation) [1]: Hysterisis was observed between 40 and 60% RH; also recorded: possibility of the transformation of Form 12 to a hydrated form
- GVS mass / total weight change [1]: about 6%
- stability on storage ([2]; 25° C./97% RH): not stable
- stability on storage ([2]; 40° C./75% RH): No obvious stability issues were noted
- solubility ([3]; water, pH 9.41, pH 9.41, read-out: aqueous solubility): 580 µg/mL (≈ 1680 µM)

Compound: Cn1cc(-c2nc(N[C@@H]3CCCC[C@@H]3N)c(F)c3c2C(=O)NC3)cn1 [Form 14]
- change in form / XRPD pattern post GVS analysis [1]: no change in the XRPD pattern was noted
- GVS mass / total weight change [1]: 1.5%
- water exchanged (GVS) [1]: 0.25 eq.
- stability on storage ([2]; 25° C./97% RH): stable
- stability on storage ([2]; 40° C./75% RH): stable

Compound: Cn1cc(-c2nc(N[C@@H]3CCCC[C@@H]3N)c(F)c3c2C(=O)NC3)cn1 [Form 5]
- hygroscopicity by GVS [1]: not hygroscopic
- change in form / XRPD pattern post GVS analysis [1]: did not change form
- change in form during storage ([2]; 40° C./97% RH for 10 days): did not change form
- stability to moisture / humidity [2]: stable to moisture
- solubility ([3]; medium not given, read-out: solubility): 11000 µg/mL (≈ 31900 µM)

Compound: Cn1cc(-c2nc(N[C@@H]3CCCC[C@@H]3N)c(F)c3c2C(=O)NC3)cn1 [Form 17]
- change in form / XRPD pattern post GVS analysis [1]: no change in the XRPD pattern was noted
- water exchanged (GVS) [1]: 0.3 eq.
- stability on storage ([2]; 25° C./97% RH): stable
- stability on storage ([2]; 40° C./75% RH): stable
- solubility ([3]; water, pH 9.33, pH 9.33, read-out: aqueous solubility): 180 µg/mL (≈ 523 µM)

Compound: Cn1cc(-c2nc(N[C@@H]3CCCC[C@@H]3N)c(F)c3c2C(=O)NC3)cn1 [Form 3, 6-(((1R,2S)-2-aminocyclohexyl)amino)-7-fluoro-4-(1-methyl-1H-pyrazol-4-yl)-1H-pyrrolo[3,4-c]pyridin-3(2H)-one hydrochloride dihydrate]
- GVS behaviour (dehydration, crystallisation, transformation) ([1]; hydrochloride dihydrate): subject to dehydration below 20% RH
- change in form / XRPD pattern post GVS analysis ([1]; hydrochloride dihydrate): No change in form was observed
- change in form after storage ([2]; 25° C./97% RH for 1 week): No change in form was observed
- change in form after storage ([2]; 40° C./75% RH for 1 week): No change in form was observed

Compound: Cn1cc(-c2nc(N[C@@H]3CCCC[C@@H]3N)c(F)c3c2C(=O)NC3)cn1 [Form 13]
- hygroscopicity by GVS [1]: not hygroscopic
- change in form / XRPD pattern post GVS analysis [1]: no transformation to hydrates was observed
- GVS mass / total weight change [1]: less than 0.6%
- stability on storage ([2]; 25° C./97% RH): stable
- stability on storage ([2]; 40° C./75% RH): stable
- solubility ([3]; water, pH 9.05, pH 9.05, read-out: aqueous solubility): 190 µg/mL (≈ 552 µM)

Compound: Cn1cc(-c2nc(N[C@@H]3CCCC[C@@H]3N)c(F)c3c2C(=O)NC3)cn1 [Form 4]
- hygroscopicity by GVS [1]: not hygroscopic; also recorded: non-hygroscopic
- change in form during storage ([2]; 25° C./97% RH for 10 days): did not change form
- change in form during storage ([2]; 40° C./75% RH for 10 days): did not change form
- change in form during storage ([2]; 40° C./97% RH for 10 days): did not change form
- stability to moisture / humidity [2]: stable to moisture

Compound: Cn1cc(-c2nc(N[C@@H]3CCCC[C@@H]3N)c(F)c3c2C(=O)NC3)cn1 [Form 1]
- hygroscopicity by GVS [1]: not hygroscopic
- GVS variation ([1]; RH range not printed at the place): less than 0.3 % w/w
- change in form / XRPD pattern post GVS analysis [1]: No change in form was observed
- GVS mass / total weight change [1]: less than 0.3%
- change in form after storage ([2]; 25° C./97% RH for 1 week): No change in form was observed
- change in form after storage ([2]; 40° C./75% RH for 1 week): No change in form was observed
- mean accumulation ([4]; 15 days): 2.7 fold
- coefficient of variation for dl 5 AUCtau (variability in steady-state exposures) ([4]; po, 120 mg): 47%
- Tmax ([4]; plasma, 11 patients at 60 and 120 mg oral QD, read-out: median Tmax): 2 h
- patients died on study (deaths not related to study drug) ([5]; 60 mg QD): 3
- patients died on study (deaths not related to study drug) ([5]; 120 mg QD): 1 patient
- patients discontinued due to adverse events ([5]; human, in vivo): 3 patients
- patients died on study (deaths not related to study drug) ([5]; overall, 15 patients): 4 patients
- DLBCL patients showing signs of response ([6]; 60 mg QD, after 2 cycles, 5 response-evaluable patients (4 DLBCL)): 2 patients
- patients with partial response [6, 7]: 1
- tumor reduction in 1 patient [6, 7]: 25%
- patients achieving partial response ([6]; DLBCL, 80 mg, after 1 cycle, post data cut-off): 1 patient

Compound: Cn1cc(-c2nc(N[C@@H]3CCCC[C@@H]3N)c(F)c3c2C(=O)NC3)cn1 [Form 8]
- GVS behaviour (dehydration, crystallisation, transformation) [1]: minimal weight variation between 10 and 90% RH

Compound: Cn1cc(-c2nc(N[C@@H]3CCCC[C@@H]3N)c(F)c3c2C(=O)NC3)cn1 [Form 7]
- GVS water uptake ([1]; RH range not given): 10.5%
- stability to moisture / humidity [2]: unstable to humidity and converted back to a hydrated form (Form 9)

Compound: Cn1cc(-c2nc(N[C@@H]3CCCC[C@@H]3N)c(F)c3c2C(=O)NC3)cn1 [Form 2]
- GVS behaviour (dehydration, crystallisation, transformation) [1]: adsorbs moisture in the range of 40-80% relative humidity (RH) and undergoes a crystallization event above 80% RH; also recorded: undergoes a crystallisation event above 80% RH
- change in form / XRPD pattern post GVS analysis [1]: transformation to Form 1
- GVS weight loss accompanying crystallization ([1]; between 80% and 90% RH): 7%
- moisture adsorbed (GVS) ([1]; range of 40-80% RH): 9 % w/w

Compound: Cn1cc(-c2nc(N[C@@H]3CCCC[C@@H]3N)c(F)c3c2C(=O)NC3)cn1 [Form 16]
- GVS behaviour (dehydration, crystallisation, transformation) [1]: dehydration below 30% RH; also recorded: stable at and above 30% RH at 25 °C and desolvated below 30% RH
- stability on storage ([2]; 25° C./97% RH): No changes in the XRPD pattern were observed
- stability on storage ([2]; 40° C./75% RH): No changes in the XRPD pattern were observed
- solubility ([3]; water, pH 9.27, pH 9.27, read-out: aqueous solubility): 130 µg/mL (≈ 377 µM)
